Experimental findings from patent publication US11267925B2, “Water-based polyurethane dispersions and their preparation” (Dow Global Technologies LLC, priority 2017, dated 2022) are described below.

The structures appear in SMILES notation.

A short description of series [1]: Vapor pressure versus temperature profiles and normal boiling points in ebulliometer (ASTM E1719). The series is classed as physicochemical. The procedure: (§1) The vapor pressures versus temperature profiles of neat PROGLYDE™ DMM dipropylene glycol dimethyl ether, neat N,N-DMPA, and of three different blends of dipropylene glycol dimethyl ether and N,N-DMPA containing 83 wt %, 55 wt %, and 35 wt % dipropylene glycol dimethyl ether respectively are measured in an ebulliometer in the 5-760 millimeters of mercury (mmHg) pressure range by ASTM E1719 to obtain Antoine constants and the normal boiling points of pure components and blends. Pseudo-azeotropes and actual minimum boiling azeotropes are indicated by a normal boiling point which is lower than the boiling point of either of the neat components. The solubility of DMPA in these blends is also evaluated at 25° C. at the DMPA:solvent blend ratio of 1:9. The composition of the blends is detailed in Table 1 below: […]

A short description of series [2]: Solubility of DMPA in solvents and solvent blends (mixed on shaker, appearance observed). The series is classed as physicochemical. The settings on record: for affinity in terms of solubility toward DMPA: neat solvent, weight ratio solvent:DMPA 9:1, room temperature (23° C.), FIG. 2. The procedure: At room temperature (23° C.), 1 gram (g) of DMPA and 9 g solvent are added into a glass bottle and mixed on a shaker for 30 minutes. After shaking, the appearance of the mixture in each bottle is observed for solubility. The solvent is either neat dialkyl amide or a blend of dialkyl amide with PROGLYDE™ DMM dipropylene glycol dimethyl ether. Blends are prepared in three blend ratios: 2:1, 1:1, and 1:2 ether:dialkyl amide.
At room temperature (23° C.), 1 g DMPA and various weights of solvent are added into a glass bottle, then mixed for 30 minutes before checking the appearance.
as §1

Turning to `CCC(=O)N(C)C` [N,N-DMPA, N,N-dimethylpropionamide], the normal boiling point in series [1] came to 175.186 °C. In addition, the “solubility of DMPA in N,N-DMPA at different weight ratios” value in series [2] (dialkyl amide to DMPA 3:1 to 8:1, 23° C., FIG. 4) was “can dissolve DMPA effectively”. In addition, the “affinity in terms of solubility toward DMPA” value (“affinity in terms” for short) in series [2] is on record as “good affinity toward DMPA”. For `COCCC(=O)N(C)C` [M3-N,N-DMPA, 3-methoxy-N,N-dimethyl propionamide], the “affinity in terms” value in series [2] was “good affinity toward DMPA”. With `CCN(CC)C(C)=O` [N,N-DEAC, N,N-diethylacetamide], the “affinity in terms” value in series [2] was “good affinity toward DMPA”. In turn, `COCC(C)OCC(C)OC` (stereo not drawn) [dipropylene glycol dimethyl ether, reference compound] showed a normal boiling point in series [1] of 174.931 °C.
